Measurements reported in ChEMBL document CHEMBL3885881, “DrugMatrix”.

Species: Rattus norvegicus
Test: DrugMatrix - Regimen: Daily Repeat
Format: toxicity, organism-based, Sprague-Dawley
Design: regimen Daily Repeat, gender Male, age 6-8 weeks
Conditions: in vivo, po, route oral GAVAGE, vehicle .5 % CMC; for ABSOLUTE BASOPHIL / ABSOLUTE EOSINOPHIL / ABSOLUTE LYMPHOCYTE / ABSOLUTE MONOCYTE / ABSOLUTE SEGMENTED NEUTROPHIL / BASOPHIL / EOSINOPHIL / ERYTHROCYTE COUNT / HEMATOCRIT / HEMOGLOBIN / LEUKOCYTE COUNT / LYMPHOCYTE / MEAN CORPUSCULAR HEMOGLOBIN / MEAN CORPUSCULAR HEMOGLOBIN CONCENTRATION / MEAN CORPUSCULAR VOLUME / MONOCYTE / NEUTROPHIL / NUCLEATED RED BLOOD CELLS / PLATELET COUNT: tissue Blood; for ALANINE AMINOTRANSFERASE / ALBUMIN / ALKALINE PHOSPHATASE / ASPARTATE AMINOTRANSFERASE / BLOOD UREA NITROGEN / CARBON DIOXIDE / CHLORIDE / CHOLESTEROL / CREATINE PHOSPHOKINASE / CREATININE / GLUCOSE / LACTATE DEHYDROGENASE / LIPASE / PHOSPHORUS / POTASSIUM / SODIUM / TOTAL BILIRUBIN / TOTAL PROTEIN / URIC ACID: tissue Plasma
[1] = 20 mg/kg, 120 h, dose level Low, time 5 day
[2] = 1600 mg/kg, 72 h, dose level High, time 3 day
[3] = 1600 mg/kg, 120 h, dose level High, time 5 day

NC(=O)N1c2ccccc2CC(=O)c2ccccc21 [OXCARBAZEPINE]
ABSOLUTE BASOPHIL [1]: 0 CELLS/uL | ABSOLUTE EOSINOPHIL [1]: 112 CELLS/uL | ABSOLUTE LYMPHOCYTE [1]: 14390.67 CELLS/uL | ABSOLUTE MONOCYTE [1]: 0 CELLS/uL | ABSOLUTE SEGMENTED NEUTROPHIL [1]: 964 CELLS/uL | BASOPHIL [1]: 0% | EOSINOPHIL [1]: 0.67% | ERYTHROCYTE COUNT [1]: 5.76 x10E6/uL | HEMATOCRIT [1]: 35.97% | HEMOGLOBIN [1]: 14.53 G/DL | LEUKOCYTE COUNT [1]: 15.47 x10E3/uL | LYMPHOCYTE [1]: 93.33% | MEAN CORPUSCULAR HEMOGLOBIN [1]: 25.2 pg | MEAN CORPUSCULAR HEMOGLOBIN CONCENTRATION [1]: 40.4 G/DL | MEAN CORPUSCULAR VOLUME [1]: 62.37 fL | MONOCYTE [1]: 0% | NEUTROPHIL [1]: 6% | NUCLEATED RED BLOOD CELLS [1]: 0.33 /100WBC | PLATELET COUNT [1]: 1403.33 x10E3/uL | ALANINE AMINOTRANSFERASE [1]: 47.67 u/L | ALBUMIN [1]: 4.37 G/DL | ALKALINE PHOSPHATASE [1]: 374.67 u/L | ASPARTATE AMINOTRANSFERASE [1]: 83.33 u/L | BLOOD UREA NITROGEN [1]: 17 mg/dL | CARBON DIOXIDE [1]: 26.67 mmol/L | CHLORIDE [1]: 102.33 MEQ/L | CHOLESTEROL [1]: 67.67 mg/dL | CREATINE PHOSPHOKINASE [1]: 246.33 u/L | CREATININE [1]: 0.16 mg/dL | GLUCOSE [1]: 163.33 mg/dL | LACTATE DEHYDROGENASE [1]: 115.33 u/L | LIPASE [1]: 8.67 u/L | PHOSPHORUS [1]: 12.83 mg/dL | POTASSIUM [1]: 6.85 MEQ/L | SODIUM [1]: 146.7 MEQ/L | TOTAL BILIRUBIN [1]: 0.17 mg/dL | TOTAL PROTEIN [1]: 6.17 G/DL | URIC ACID [1]: 2.23 mg/dL | ABSOLUTE BASOPHIL [2]: 0 CELLS/uL | ABSOLUTE EOSINOPHIL [2]: 0 CELLS/uL | ABSOLUTE LYMPHOCYTE [2]: 14109.67 CELLS/uL | ABSOLUTE MONOCYTE [2]: 56.33 CELLS/uL | ABSOLUTE SEGMENTED NEUTROPHIL [2]: 1034 CELLS/uL | BASOPHIL [2]: 0% | EOSINOPHIL [2]: 0% | ERYTHROCYTE COUNT [2]: 6.38 x10E6/uL | HEMATOCRIT [2]: 39.5% | HEMOGLOBIN [2]: 15.47 G/DL | LEUKOCYTE COUNT [2]: 15.2 x10E3/uL | LYMPHOCYTE [2]: 93.33% | MEAN CORPUSCULAR HEMOGLOBIN [2]: 24.27 pg | MEAN CORPUSCULAR HEMOGLOBIN CONCENTRATION [2]: 39.2 G/DL | MEAN CORPUSCULAR VOLUME [2]: 61.93 fL | MONOCYTE [2]: 0.33% | NEUTROPHIL [2]: 6.33% | NUCLEATED RED BLOOD CELLS [2]: 0 /100WBC | PLATELET COUNT [2]: 1432 x10E3/uL | ALANINE AMINOTRANSFERASE [2]: 82.67 u/L | ALBUMIN [2]: 4.43 G/DL | ALKALINE PHOSPHATASE [2]: 485.33 u/L | ASPARTATE AMINOTRANSFERASE [2]: 91 u/L | BLOOD UREA NITROGEN [2]: 16.33 mg/dL | CARBON DIOXIDE [2]: 31 mmol/L | CHLORIDE [2]: 101 MEQ/L | CHOLESTEROL [2]: 73 mg/dL | CREATINE PHOSPHOKINASE [2]: 195 u/L | CREATININE [2]: 0.2 mg/dL | GLUCOSE [2]: 116 mg/dL | LACTATE DEHYDROGENASE [2]: 266 u/L | LIPASE [2]: 11 u/L | PHOSPHORUS [2]: 10.13 mg/dL | POTASSIUM [2]: 6.83 MEQ/L | SODIUM [2]: 145.67 MEQ/L | TOTAL BILIRUBIN [2]: 0.17 mg/dL | TOTAL PROTEIN [2]: 5.8 G/DL | URIC ACID [2]: 1.43 mg/dL | ABSOLUTE BASOPHIL [3]: 0 CELLS/uL | ABSOLUTE EOSINOPHIL [3]: 0 CELLS/uL | ABSOLUTE LYMPHOCYTE [3]: 15797.33 CELLS/uL | ABSOLUTE MONOCYTE [3]: 212.67 CELLS/uL | ABSOLUTE SEGMENTED NEUTROPHIL [3]: 2156.67 CELLS/uL | BASOPHIL [3]: 0% | EOSINOPHIL [3]: 0% | ERYTHROCYTE COUNT [3]: 5.81 x10E6/uL | HEMATOCRIT [3]: 36.23% | HEMOGLOBIN [3]: 14.8 G/DL | LEUKOCYTE COUNT [3]: 18.17 x10E3/uL | LYMPHOCYTE [3]: 87.33% | MEAN CORPUSCULAR HEMOGLOBIN [3]: 25.47 pg | MEAN CORPUSCULAR HEMOGLOBIN CONCENTRATION [3]: 40.83 G/DL | MEAN CORPUSCULAR VOLUME [3]: 62.33 fL | MONOCYTE [3]: 1% | NEUTROPHIL [3]: 11.67% | NUCLEATED RED BLOOD CELLS [3]: 0 /100WBC | PLATELET COUNT [3]: 1349.67 x10E3/uL | ALANINE AMINOTRANSFERASE [3]: 60.67 u/L | ALBUMIN [3]: 4.5 G/DL | ALKALINE PHOSPHATASE [3]: 338.67 u/L | ASPARTATE AMINOTRANSFERASE [3]: 86.33 u/L | BLOOD UREA NITROGEN [3]: 17.33 mg/dL | CARBON DIOXIDE [3]: 23.33 mmol/L | CHLORIDE [3]: 99 MEQ/L | CHOLESTEROL [3]: 93.67 mg/dL | CREATINE PHOSPHOKINASE [3]: 336.33 u/L | CREATININE [3]: 0.28 mg/dL | GLUCOSE [3]: 123 mg/dL | LACTATE DEHYDROGENASE [3]: 512.67 u/L | LIPASE [3]: 13 u/L | PHOSPHORUS [3]: 13.6 mg/dL | POTASSIUM [3]: 7.68 MEQ/L | SODIUM [3]: 142.17 MEQ/L | TOTAL BILIRUBIN [3]: 0.23 mg/dL | TOTAL PROTEIN [3]: 6.43 G/DL | URIC ACID [3]: 2.07 mg/dL
